Data: US9487506B2, “Mineralocorticoid receptor antagonists” (Merck Sharp & Dohme Corp., priority 2011, dated 2016)

Each compound was assayed against T1, full-length human Mineralocorticoid Receptor (MR) (Homo sapiens, UniProt P08235) (assay: human MR NH Pro assay (PathHunter Protein:Protein interaction assay), MR antagonist activity). Settings: PathHunter CHO-K1 cells overexpressing human MR; aldosterone 0.3 nM to about 1 nM; 6 hours at 37° C.; luminescence; read-out: IP (rating); IP is the inflection point for a given dose-response titration curve.
T1 construct: host or cells: PathHunter CHO-K1 cells
T1 sequence (P08235 1-984): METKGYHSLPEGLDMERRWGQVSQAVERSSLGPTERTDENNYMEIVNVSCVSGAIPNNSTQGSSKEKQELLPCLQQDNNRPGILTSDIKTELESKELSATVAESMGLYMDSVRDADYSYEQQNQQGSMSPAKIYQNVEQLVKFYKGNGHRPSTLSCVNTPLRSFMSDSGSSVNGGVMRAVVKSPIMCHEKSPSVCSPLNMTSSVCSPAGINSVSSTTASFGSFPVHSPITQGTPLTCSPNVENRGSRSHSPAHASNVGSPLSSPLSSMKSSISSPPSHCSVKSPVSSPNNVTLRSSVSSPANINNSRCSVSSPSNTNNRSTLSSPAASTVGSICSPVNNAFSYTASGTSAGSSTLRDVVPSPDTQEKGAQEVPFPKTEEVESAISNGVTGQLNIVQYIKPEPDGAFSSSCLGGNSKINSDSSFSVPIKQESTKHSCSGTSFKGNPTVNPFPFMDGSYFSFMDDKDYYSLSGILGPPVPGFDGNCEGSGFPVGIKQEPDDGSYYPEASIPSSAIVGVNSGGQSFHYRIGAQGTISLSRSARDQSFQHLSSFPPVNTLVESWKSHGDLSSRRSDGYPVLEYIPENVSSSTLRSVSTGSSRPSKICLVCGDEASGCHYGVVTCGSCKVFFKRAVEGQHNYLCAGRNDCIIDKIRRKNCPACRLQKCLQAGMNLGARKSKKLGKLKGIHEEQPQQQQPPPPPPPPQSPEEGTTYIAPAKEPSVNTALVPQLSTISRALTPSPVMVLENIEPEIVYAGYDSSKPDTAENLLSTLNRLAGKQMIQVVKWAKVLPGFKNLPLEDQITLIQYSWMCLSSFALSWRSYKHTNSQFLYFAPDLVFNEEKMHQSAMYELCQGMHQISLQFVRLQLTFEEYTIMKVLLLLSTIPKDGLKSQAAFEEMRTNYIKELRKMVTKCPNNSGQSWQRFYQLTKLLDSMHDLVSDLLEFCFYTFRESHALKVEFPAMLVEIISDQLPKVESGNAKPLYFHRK
Assay type: cell-based
Excerpt: The activity of the compounds of the present invention regarding mineralocorticoid receptor antagonism can be evaluated using the following assay.
Assessment of MR Potency in HMR NH Pro Assay
The human MR NH Pro assay is a commercially available PathHunter™ Protein:Protein interaction assay (DiscoveRx; http://www.discoverx.com/nhrs/prod-nhrs.php) that measures the ability of compounds to antagonize full-length human Mineralocorticoid Receptor (MR) binding to a coactivator peptide. PathHunter™ CHO-K1 cells that overexpress human MR (Cat #93-0456C2, Lot No: 09B0913) were cultured in growth media (F12K w/Glutamine and phenol red (Gibco 11765-047) supplemented with 10% HI FBS (Gibco 16000); 0.25 mg/ml Hygromycin in PBS (Invitrogen 10687-010, 50 mg/ml); 100 I.U./mL and 100 μg/mL Pen/Strep (Gibco 15140-122); 0.6 mg/mL Geneticin (Gibco 10131-027).
Compounds were assessed for MR antagonist activity by incubating the cells with a titrating dose of compound in F12K w/Glutamine and phenol red culture media (Invitrogen 11765-047) supplemented with 1% Charcoal/Dextran Treated FBS (Hyclone #SH30068.01) and aldosterone (0.3 nM to about 1 nM) for 6 hours at 37° C. Cells were then treated with DiscoveRx detection reagent for 1 hour at room temperature and read using an Envision luminescence plate reader. % activity was measured relative to cells treated with aldosterone alone and IC50 values were calculated using ADA software.
Stock solution was prepared at 10 μM in DMSO and stored at −20° C. for assay, dilute in assay media to 1.8 or 6 nM (6× of final concentration=about 0.3 nM to about 1.0 nM)
5. Cell line: PathHunter CHO-K1 MR cells Cat #93-0456C2, Lot No: 09B0913, from operation liquid nitrogen stock.
3. The cells concentration was adjusted to 4×10^5 cells/mL.
4. Cells were (25 μL/well) added to the wells of a 384 well plate.
5. The plate was then incubated at 37° C. over night in a humidified incubator with 5% CO2.
6. Test compounds were titrated starting at 4.4 mM, 10-point titration in 1:3 dilution.
7. Aldosterone was diluted in assay media to 1.8 nM or 6 nM from 10 μM stock (final concentration to be about 0.3 nM to about 1.0 nM)
1. 10K exponentially growing cells/well (25 μL) were resuspended in assay media and plated into each well using the Multidrop (Thermo Electron) (use white wall, clear bottom assay plates (Costar #3570) and incubated overnight at 37° C., 5% CO2.
2. 0.25 μL 120× test compound (final DMSO concentration should be <1%) was added to each well n=2, 10 point titrations starting at 36.7 μM final concentration.
3. 5 μL of 6× agonist (final aldosterone concentration should be about 0.3 nM to about 1.0 nM) was added to all wells (using the PlateMate Plus; (ThermoFisher) (except those wells in columns 23 and 24)
4. 5 μL of assay media was added to all wells in column 23 and 24.
5. Cells were then incubated for 6 hrs at 37° C., 5% CO2.
6. 15 μL 3× DiscoveRx detection reagent was then added to each well.
7. Plates were incubated for 1 hour at room temperature in the dark.
8. Plates were read on Envision (PerkinElmer) luminesence plate reader and analyzed using ADA.

| Structure (SMILES) | IC50 [µM] |
| --- | --- |
| CC(C)(C)OC(=O)Cn1nc(C(C)(C)c2ccc(Cl)cc2)c2ccccc21 [Example 18, tert-butyl {3-[1-(4-chlorophenyl)-1-methylethyl]-1H-indazol-1-yl}acetate] | 0.5 to 6 |
| CCC(CC)(c1ccc(Cl)cc1)c1nn(CC(=O)OC)c2ccccc12 [Example 19, methyl {3-[1-(4-chlorophenyl)-1-ethylpropyl]-1H-indazol-1-yl}acetate] | 0.1 to 0.5 |
| COC(=O)Cn1nc(Cc2ccc(Cl)cc2)c2ccccc21 [Example 20, Methyl [3-(4-chlorobenzyl)-1H-indazol-1yl]acetate] | 0.5 to 6 |
| Clc1ccc(Cc2nn(Cc3ccccc3)c3ccccc23)cc1 [Example 21, 3-(4-chlorobenzyl)-1-benzyl-1H-indazole] | 0.5 to 6 |

More lines, now with the values ahead:

| IC50 [µM] | Structure (SMILES) |
| --- | --- |
| 0.5 to 6 | N#CCCC(c1ccc(Cl)cc1F)c1nn(CC#N)c2ccccc12 (stereo not drawn) [Example 17E, 4-(4-chloro-2-fluorophenyl)-4-[1-(cyano-methyl)-1H-indazol-3-yl]-butanenitrile] |
| 0.5 to 6 | COCCn1nc(C(CCC#N)c2ccc(Cl)cc2F)c2ccccc21 (stereo not drawn) [Example 17F, 4-(4-chloro-2-fluorophenyl)-4-[1-(2-methoxyethyl)-1H-indazol-3-yl]butanenitrile] |
